The source of these data is patent US20100190982A1, “PROCESS FOR THE PREPARATION OF LAMIVUDINE FORM I” (priority 2007, published 2010).

Read-outs that look alike come from different tables or passages of the source.

The conditions of data set [1]: as stated in U.S. Pat. No. 5,905,082, cited from earlier work.
Data set [2] can be described thus: Drying of Form I crystals at 80° C. (under reduced pressure), polymorphic change. It is filed as physicochemical. The note with it: for conversion of Form I to Form II on drying: drying at 80° C. (under reduced pressure). On the procedure:
(§1) Therefore our endeavour was to prepare Lamivudine polymorph Form I, which is storage stable and remains unchanged during preparation of solid doses form. […] (under reduced pressure). Data has been generated up to 72 h drying at 80° C.
In the present invention, the Lamivudine polymorphic Form I obtained is 100% pure.

The nature of data set [3]: Grinding / milling of Form I crystals, polymorphic change. It is filed as physicochemical. Here is the method: as §1
The nature of data set [4]: Stability testing at 60° C. It is filed as physicochemical. The note with it: two months.
Data set [5] is described as follows: Storage of Form I crystals, polymorphic change. It is filed as physicochemical. Here is the method: as §1

For `Nc1ccn([C@@H]2CS[C@H](CO)O2)c(=O)n1` [Form II, Lamivudine], the “relative stability of polymorphic form” value in data set [1] is given as “more stable polymorphic form”.

For `Nc1ccn([C@@H]2CS[C@H](CO)O2)c(=O)n1` [Lamivudine Form I crystals prepared by the process of instan], in data set [2], the “conversion of Form I to Form II on drying” value (from here on “conversion … on drying”) was “do not convert to Form II”. In addition, the “conversion … on drying” value in data set [2] (listed as Lamivudine polymorphic Form I) is on record as “does not change into other polymorphic form”. Also, the “polymorphic change on drying” value in data set [2] (up to 72 h drying at 80° C. (under reduced pressure)) is “no polymorphic change has been observed”. Besides, the “change in polymorphic form on grinding” value in data set [3] (grinded neat for 5-15 min at 20-30° C.) is on record as “no change in polymorphic form has been observed”. Moreover, in data set [4], the “chemical degradation in stability testing” value is “neither chemical degradation” and the “polymorphic change in stability testing” value was “nor polymorphic change was observed”.

`Nc1ccn([C@@H]2CS[C@H](CO)O2)c(=O)n1` [Lamivudine polymorphic Form I prepared by crystallisation fr]: in data set [1] (listed as Form I crystals), the “relative stability of polymorphic form” value was “less stable”. Moreover, the “conversion of Form I to Form II in pharmaceutical unit operations” value in data set [1] (milling/grinding) is reported as “may cause conversion of Form I to Form II”. Besides, in data set [5], the “conversion to Form II on storage” value is recorded as “partially converted into Form II”. In data set [2], the “conversion … on drying” value is given as “partially converted into Form II”. For the same molecule, the “conversion to Form II when milled/grinded” value in data set [3] (milled/grinded) was “partial conversion to Form II was observed”.
